Patent publication US20030199457A1, “Prevention and treatment of thromboembolic disorders associated with arterial & venous thrombosis” (priority 2002, published 2003)

Tests used:
thrombosis = conditions: U.S. Pat. No. 6,103,705, cited from earlier work
[1] = system: TF-induced clot formation/strength; assay: Tissue factor-triggered thrombelastography (TEG), clot strength; format: cell-based; conditions: GPIIb/IIIa antagonists added to TEG cup with CaCl2 and TF; mimics platelet removal from whole blood
Experimental: Thrombelastography: Clot formation was monitored at 37° C. in an oscillating plastic cylindrical cuvette (“cup”) and a coaxially suspended stationary piston (“pin”) with a 1 mm clearance between the surfaces, using a computerized Thrombelastograph (CTEG Model 3000, Haemoscope, Skokie, Ill.) as described by Mousa et al., Athero Thromb Vasc Biol 2000. The cup oscillates 4°45′ ( 1/12 radian) in either direction every 4.5 seconds, with a 1 second mid-cycle stationary period; resulting in a frequency of 0.1 Hz and a maximal shear rate of 0.1 per second. The pin is suspended by a torsion wire that acts as a torque transducer. […] The torque experienced by the pin (relative to the cup's oscillation) is plotted as a function of time (Essel et al., J Cardiovascular Anesth., 7:410-415, 1993; Mousa et al., Arteriosclerosis Thromb Vasc Biol., 20:1162-1167, 2000). The amplitude on the TEG tracing is a measure of the rigidity of the clot; the peak strength or the shear elastic modulus attained by the clot, G, is a function of clot rigidity and can be calculated from the maximal amplitude (MA) of the TEG (Mousa et al., Arteriosclerosis Thromb Vasc Biol., 20:1162-1167, 2000).
Platelet Contribution to Clot Strength: To assess the effect of the TF modification on peak clot strength (G) was measured with and without the addition of TF in paired samples of WB and PRP. To document the contribution of activated platelets to the elastic modulus of fibrin clots, the effect of platelet number was measured by serially diluting PRP with PPP. The platelet count of each dilution was measured before performing TEG. Tissue factor-triggered TEG was performed with increasing concentrations added to the TEG cups. […] The Thrombelastograph maximum amplitude (MA) for platelets MA (PLT)) was calculated by subtracting the MA from a platelet-poor plasma (PPP) sample MA (PPP) determined in one TEG well from that of whole blood MA (WB) run simultaneously in the second TEG well.

platelet aggregation = conditions: combined with LMWH; 0.5 IU/ml thrombin; cited from earlier work

Molecule	anti-thrombotic effect on co-administration with the LMWH enoxaparin (thrombosis; intravenous, sub-effective or reduced levels)	anti-thrombotic effect on co-administration with standard heparin (thrombosis; same reduced level of the GPIIb/IIIa antagonist)	maximal blockade (clot strength) [1] [%]	effect of sub-therapeutic concentrations on the dose-response relationship of LMWH (platelet aggregation)
CCCCS(=O)(=O)N[C@@H](Cc1ccc(OCCCCC2CCNCC2)cc1)C(=O)O [BSPBPA]	enhanced anti-thrombotic effect	This was not the case		
CCCCOC(=O)N[C@@H](CNC(=O)C[C@H]1CC(c2ccc(C(=N)N)cc2)=NO1)C(=O)O [XV459]			80	
CCCCOC(=O)N[C@@H](CNC(=O)C[C@H]1CC(c2ccc(C(=N)N)cc2)=NO1)C(=O)OC [roxifiban]			80	significant enhancement (synergy) of anti-thrombotic efficacy
Abciximab: monoclonal antibody for GPIIb/IIIa (c7E3 Fab) (antibody, chains of the INN, looked up, V domains shown, Fab) VH: EVQLQQSGTVLARPGASVKMSCEASGYTFTNYWMHWVKQRPGQGLEWIGAIYPGNSDTSYIQKFKGKAKLTAVTSTTSVYMELSSLTNEDSAVYYCTLYDGYYVFAYWGQGTLVTVSA VL: EIVLTQSPVTLSVTPGDSVSLSCRASRDISNNLHWFQQTSHESPRLLIKYASQSMSGIPSRFSGSGSGTDFTLSINSVETEDFGMYFCQQTNSWPYTFGGGTKLEIK			80	significant enhancement (synergy) of anti-thrombotic efficacy
